Holding throughout (assay type): biochemical
The target in one experiment is T1, BTK-WT (Homo sapiens, UniProt Q06187).
T1 construct: purified from insect cells as a full-length construct containing an N-terminal 6X-His tag; His6 (N); made in house; host or cells: insect cells (baculovirus Sf21 in Method B)
Kind of experiment: Btk in vitro inhibitory activity (one of Method A TR-FRET, Method B electrophoretic mobility shift, Method C radiometric filter binding). To be noted: E compounds, Table 17; read-out: IC50 BTK-WT. (In EMSA bound probe runs differently from free probe, usually more slowly.)

In the next experiment the target is T2, ITK (Homo sapiens, UniProt Q08881).
T2 sequence (Q08881 1-620): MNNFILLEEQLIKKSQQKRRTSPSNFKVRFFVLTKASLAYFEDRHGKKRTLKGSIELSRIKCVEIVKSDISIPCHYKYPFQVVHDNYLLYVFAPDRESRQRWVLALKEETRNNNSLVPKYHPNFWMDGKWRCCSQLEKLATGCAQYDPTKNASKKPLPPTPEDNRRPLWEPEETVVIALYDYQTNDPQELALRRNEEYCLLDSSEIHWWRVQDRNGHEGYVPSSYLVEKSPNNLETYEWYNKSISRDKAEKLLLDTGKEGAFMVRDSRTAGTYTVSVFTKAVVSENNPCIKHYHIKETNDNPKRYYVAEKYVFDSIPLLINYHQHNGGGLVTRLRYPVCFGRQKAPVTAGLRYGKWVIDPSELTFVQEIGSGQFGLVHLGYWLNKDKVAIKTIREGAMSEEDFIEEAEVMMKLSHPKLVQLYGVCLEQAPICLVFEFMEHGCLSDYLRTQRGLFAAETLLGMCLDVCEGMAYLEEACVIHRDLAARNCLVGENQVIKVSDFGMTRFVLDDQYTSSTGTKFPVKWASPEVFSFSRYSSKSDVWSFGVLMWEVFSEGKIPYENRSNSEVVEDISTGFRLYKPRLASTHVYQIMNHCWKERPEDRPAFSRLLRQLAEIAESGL
Kind of experiment: Inhibition of a panel of kinases, in vitro HotSpot kinase assay: ITK. To be noted: E compounds, Table 17. How it is done: (§1) The degree of inhibition of a panel of kinases is determined using the in vitro HotSpot kinase assay (purified enzymes, ^33P-ATP, an appropriate substrate and 1 μM ATP).

The next experiment concerns the target T3, TEC (Homo sapiens, UniProt P42680).
T3 sequence (P42680 1-631): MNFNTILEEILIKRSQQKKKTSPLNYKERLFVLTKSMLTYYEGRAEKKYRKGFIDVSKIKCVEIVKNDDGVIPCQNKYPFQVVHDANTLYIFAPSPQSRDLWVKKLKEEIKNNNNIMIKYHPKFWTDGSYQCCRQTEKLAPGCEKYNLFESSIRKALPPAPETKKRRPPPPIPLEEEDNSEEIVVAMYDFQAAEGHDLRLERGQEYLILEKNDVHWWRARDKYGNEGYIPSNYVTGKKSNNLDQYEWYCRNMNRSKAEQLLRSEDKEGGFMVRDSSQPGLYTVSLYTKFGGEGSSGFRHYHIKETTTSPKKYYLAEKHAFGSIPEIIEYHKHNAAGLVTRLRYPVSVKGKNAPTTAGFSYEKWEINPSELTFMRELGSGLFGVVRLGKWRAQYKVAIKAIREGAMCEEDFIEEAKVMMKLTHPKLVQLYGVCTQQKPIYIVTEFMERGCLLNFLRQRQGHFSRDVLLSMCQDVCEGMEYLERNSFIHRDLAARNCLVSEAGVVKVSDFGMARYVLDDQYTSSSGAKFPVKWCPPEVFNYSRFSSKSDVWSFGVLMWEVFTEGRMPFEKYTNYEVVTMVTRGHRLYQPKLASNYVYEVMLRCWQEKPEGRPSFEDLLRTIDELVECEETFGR
As to the kind of experiment: Inhibition of a panel of kinases, in vitro HotSpot kinase assay: TEC. To be noted: E compounds, Table 17. On the procedure:
as §1

T1 sequence (Q06187 whole entry): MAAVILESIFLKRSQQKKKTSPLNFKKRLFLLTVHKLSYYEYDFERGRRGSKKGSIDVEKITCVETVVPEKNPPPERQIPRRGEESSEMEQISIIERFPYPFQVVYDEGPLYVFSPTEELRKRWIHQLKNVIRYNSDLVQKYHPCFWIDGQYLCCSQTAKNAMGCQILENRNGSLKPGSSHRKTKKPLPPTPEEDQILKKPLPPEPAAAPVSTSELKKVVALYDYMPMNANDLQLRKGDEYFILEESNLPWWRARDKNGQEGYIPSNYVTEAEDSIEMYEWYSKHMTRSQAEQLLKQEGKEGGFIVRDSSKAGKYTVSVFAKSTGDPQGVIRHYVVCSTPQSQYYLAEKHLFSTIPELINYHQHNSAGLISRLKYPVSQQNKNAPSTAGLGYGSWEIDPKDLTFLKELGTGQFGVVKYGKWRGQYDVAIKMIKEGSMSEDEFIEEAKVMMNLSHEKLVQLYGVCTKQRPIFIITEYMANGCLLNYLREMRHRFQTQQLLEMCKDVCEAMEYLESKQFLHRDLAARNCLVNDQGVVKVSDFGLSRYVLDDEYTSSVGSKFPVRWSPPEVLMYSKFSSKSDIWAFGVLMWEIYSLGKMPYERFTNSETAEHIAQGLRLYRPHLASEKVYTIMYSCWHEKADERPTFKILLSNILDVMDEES

As for `C=CC(=O)N1CCC[C@@H](Nc2nnc(C(N)=O)c(Nc3cnc4ccccc4c3)n2)C1` [Example E-54, (R)-3-(1-acryloylpiperidin-3-ylamino)-5-(quinolin-3-ylamino)-1,2,4-triazine-6-carboxamide], the IC50 (as a rule, the concentration needed to halve the response being measured) was ≤ 10 nM on BTK-WT, 10 to 100 nM on ITK and ≤ 10 nM on TEC.

For the compound `C=CC(=O)N1CC[C@@H](N(C)c2cnc(C(N)=O)c(Nc3cc(C)ns3)n2)C1` [Example E-114, (R)-5-((1-acryloylpyrrolidin-3-yl)(methyl)amino)-3-(3-methylisothiazol-5-ylamino)pyrazine-2-carboxamide], the IC50 at BTK-WT, on ITK and against TEC was ≤ 10 nM throughout.

Regarding `C=CC(=O)N1CCC[C@@H](Nc2nnc(C(N)=O)c(Nc3ccc(Cn4cncn4)cc3)n2)C1` [Example E-52, (R)-5-(4-((1H-1,2,4-triazol-1-yl)methyl)phenyl-amino)-3-(1-acryloylpiperidin-3-ylamino)-1,2,4-triazine-6-carboxamide], the IC50 at BTK-WT, at ITK and against TEC was ≤ 10 nM each time.

Consider `C=CC(=O)N1CCC[C@@H](Nc2nnc(C(N)=O)c(Nc3ccc(C4=NCCN4C)cc3)n2)C1` [Example E-80, (R)-3-(1-acryloylpiperidin-3-ylamino)-5-(4-(1-methyl-4,5-dihydro-1H-imidazol-2-yl)phenylamino)-1,2,4-triazine-6-carboxamide], for which the IC50 at BTK-WT, against ITK and on TEC was ≤ 10 nM each time.

Turning to `C=CC(=O)N1CCC[C@@H](Nc2nnc(C(N)=O)c(Nc3ccc(S(F)(F)(F)(F)F)cc3)n2)C1` [Example E-78, (R)-3-(1-acryloylpiperidin-3-ylamino)-5-(4-(penta-fluorothio)phenyl-amino)-1,2,4-triazine-6-carboxamide], the concentration for half-maximal inhibition (IC50) on BTK-WT was ≤ 10 nM; at ITK it was 10 to 100 nM; at TEC, ≤ 10 nM.

As for `C=CC(=O)N1CCC[C@@H](Nc2nnc(C(N)=O)c(Nc3cccc(C(=O)NC4CC4)c3)n2)C1` [Example E-84, (R)-3-(1-acryloylpiperidin-3-ylamino)-5-(3-(cyclopropyl-carbamoyl)phenyl-amino)-1,2,4-triazine-6-carboxamide], the IC50 at BTK-WT was ≤ 10 nM; on ITK, 10 to 100 nM; at TEC, ≤ 10 nM.

As for `C=CC(=O)NC[C@@H]1CCCCN1c1nnc(C(N)=O)c(Nc2ccc(C(C)C)cc2)n1` [Example E-89, (S)-3-(2-(acrylamido-methyl)piperidin-1-yl)-5-(4-isopropyl-phenylamino)-1,2,4-triazine-6-carboxamide], the half-maximal inhibitory concentration (IC50) lay in the range of 100 to 1000 nM on BTK-WT, 1000 to 10000 nM against ITK and 100 to 1000 nM on TEC.

Take `C=CC(=O)N1CCC[C@@H](Nc2nnc(C(N)=O)c(Nc3cccc(C(=O)OCC)c3)n2)C1` [Example E-81, (R)-ethyl 3-(3-(1-acryloylpiperidin-3-ylamino)-6-carbamoyl-1,2,4-triazin-5-ylamino)benzoate]: the IC50 is ≤ 10 nM at BTK-WT, 100 to 1000 nM against ITK and ≤ 10 nM against TEC.

In the case of `C=CC(=O)N1CCC[C@@H](Nc2nnc(C(N)=O)c(Nc3cccc(C(=O)NC)c3)n2)C1` [Example E-82, (R)-3-(1-acryloylpiperidin-3-ylamino)-5-(3-(methylcarbamoyl)phenylamino)-1,2,4-triazine-6-carboxamide], the half-maximal inhibitory concentration (IC50) on BTK-WT is ≤ 10 nM; against ITK, 10 to 100 nM; at TEC it was ≤ 10 nM.

Turning to `C=CC(=O)N1CCC[C@@H](Nc2nnc(C(N)=O)c(Nc3ccc(I)cc3)n2)C1` [Example E-50, (R)-3-(1-acryloylpiperidin-3-ylamino)-5-(4-iodophenylamino)-1,2,4-triazine-6-carboxamide], the IC50 on BTK-WT is ≤ 10 nM; at ITK, 10 to 100 nM; at TEC, ≤ 10 nM.

Regarding `C=CC(=O)N1CCC[C@@H](Nc2nnc(C(N)=O)c(Nc3ccc4c(cnn4CC)c3)n2)C1` [Example E-66, (R)-3-(1-acryloylpiperidin-3-ylamino)-5-(1-ethyl-1H-indazol-5-ylamino)-1,2,4-triazine-6-carboxamide], the IC50 on BTK-WT, at ITK and against TEC was ≤ 10 nM throughout.

Regarding `C=CC(=O)N1CC[C@@H](N(C)c2cnc(C(N)=O)c(Nc3cccc(-c4nccn4C)c3)n2)C1` [Example E-112, (R)-5-((1-acryloylpyrrolidin-3-yl)(methyl)amino)-3-(3-(1-methyl-1H-imidazol-2-yl)phenylamino)pyrazine-2-carboxamide], the IC50 on BTK-WT was ≤ 10 nM; at ITK, 10 to 100 nM; against TEC, ≤ 10 nM.

For `C=CC(=O)N1CCC[C@@H](Nc2nnc(C(N)=O)c(Nc3cncc(F)c3)n2)C1` [Example E-53, (R)-3-(1-acryloylpiperidin-3-ylamino)-5-(5-fluoropyridin-3-ylamino)-1,2,4-triazine-6-carboxamide], the results for the IC50 on BTK-WT, at ITK and against TEC were ≤ 10 nM, 100 to 1000 nM and ≤ 10 nM, respectively.

As for `C=CC(=O)N1CCC[C@@H](Nc2nnc(C(N)=O)c(Nc3cccc(C(=O)N(C)C)c3)n2)C1` [Example E-83, (R)-3-(1-acryloylpiperidin-3-ylamino)-5-(3-(dimethylcarbamoyl)phenylamino)-1,2,4-triazine-6-carboxamide], the IC50 on BTK-WT was ≤ 10 nM; at ITK it was 10 to 100 nM; against TEC, ≤ 10 nM.

`Cc1cc(Nc2nc(N(C)[C@@H]3CCN(C(=O)c4ccc(C(O)(C(F)(F)F)C(F)(F)F)cc4)C3)nnc2C(N)=O)sn1` [Example E-13, (R)-3-((1-(4-(1,1,1,3,3,3-hexafluoro-2-hydroxypropan-2-yl)benzoyl)pyrrolidin-3-yl)(methyl)amino)-5-(3-methylisothiazol-5-ylamino)-1,2,4-triazine-6-carboxamide]: the IC50 on BTK-WT was in the range of 10 to 100 nM; against ITK, 100 to 1000 nM; at TEC, 100 to 1000 nM.

On to `C=CC(=O)N1CCC[C@@H](Nc2nnc(C(N)=O)c(Nc3cnn(C)c3)n2)C1` [Example E-73, (R)-3-(1-acryloylpiperidin-3-ylamino)-5-(1-methyl-1H-pyrazol-4-ylamino)-1,2,4-triazine-6-carboxamide], for which the IC50 on BTK-WT, against ITK and against TEC was ≤ 10 nM throughout.

For `CN(c1cnc(C(N)=O)c(Nc2ccc(C3CCN(C4CC4)CC3)cc2)n1)[C@@H]1CCN(C(=O)CCCl)C1` [Example E-122, (R)-5-((1-(3-chloropropanoyl)pyrrolidin-3-yl)(methyl)amino)-3-(4-(1-cyclopropylpiperidin-4-yl)phenylamino)pyrazine-2-carboxamide], the IC50 on BTK-WT, against ITK and at TEC was ≤ 10 nM throughout.

For the compound `C=CC(=O)N1CCC[C@@H](Nc2nnc(C(N)=O)c(Nc3ccc(C(C)C)c(C)c3)n2)C1` [Example E-42, (R)-3-(1-acryloylpiperidin-3-ylamino)-5-(4-isopropyl-3-methylphenylamino)-1,2,4-triazine-6-carboxamide], the IC50 at BTK-WT was ≤ 10 nM; against ITK, 10 to 100 nM; on TEC, ≤ 10 nM.

Regarding `C=CC(=O)NC[C@@H]1CCCN1c1nnc(C(N)=O)c(Nc2ccc(C(C)C)cc2)n1` [Example E-91, (S)-3-(2-(acrylamido-methyl)pyrrolidin-1-yl)-5-(4-isopropylphenyl-amino)-1,2,4-triazine-6-carboxamide], the concentration for half-maximal inhibition (IC50) at BTK-WT was in the range of 10 to 100 nM; at ITK, 1000 to 10000 nM; on TEC, 100 to 1000 nM.

For `C=CC(=O)N1CC[C@@H](N(C)c2cnc(C(N)=O)c(Nc3ccc(N4CCN(C)CC4)cc3)n2)C1` [Example E-111, (R)-5-((1-acryloylpyrrolidin-3-yl)(methyl)amino)-3-(4-(4-methylpiperazin-1-yl)phenylamino)pyrazine-2-carboxamide], the half-inhibitory concentration (IC50) at BTK-WT, against ITK and on TEC was ≤ 10 nM in each case.

These data come from patent US20210070748A1, “INHIBITORS OF BRUTONS TYROSINE KINASE” (Pharmacyclics LLC, priority 2015, published 2021).
